The source of these data is patent US20250051327A1, “MALT-1 MODULATORS” (EXSCIENTIA AI LIMITED, priority 2020, published 2025).

Assay [1] concerns the target Recombinant human MALT-1 (amino acids 340-824) (Homo sapiens (Human), UniProt Q9UDY8). Briefly: MALT-1 inhibition assay (fluorogenic substrate Ac-LRSR-Rh110-DP). Format: biochemical. As to conditions: recombinant human MALT-1, substrate Ac-LRSR-Rh110-DP. The gist of the method: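 MALT-1 at 3 nM final was reacted with 10 μM Ac-LRSR-Rh110-DP, with substrate addition starting the reaction. Incubation ran 60 minutes at 25° C in the dark. Percent inhibition from fluorescence across doses was fitted to a 4-parameter logistic to give IC50.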

The test system of assay [2] is IL-2 secretion by human effector memory T cells (TEM). Description: Effector memory T cells IL-2 release assay. Format: cell-based. As to conditions: T-cell; human CD4+ effector memory T cells, CD3/CD28 bead stimulation, 24 h; read-out: CD4TC IL2 IC50. The essentials:
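Human CD4+ effector memory T cells from healthy-donor buffy coats were stimulated with anti-CD3/CD28 Dynabeads and exposed to 10 semi-log compound doses (0.1% DMSO) for 24 h at 37 °C. Supernatant IL-2 was measured by HTRF, and IC50 came from a 4-parameter logistic fit to maximal IL-2. Viability was checked by flow cytometry.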

Structures can show the parent of a compound that is named as a salt.

Sequence of Recombinant human MALT-1 (amino acids 340-824) (Q9UDY8 340-824): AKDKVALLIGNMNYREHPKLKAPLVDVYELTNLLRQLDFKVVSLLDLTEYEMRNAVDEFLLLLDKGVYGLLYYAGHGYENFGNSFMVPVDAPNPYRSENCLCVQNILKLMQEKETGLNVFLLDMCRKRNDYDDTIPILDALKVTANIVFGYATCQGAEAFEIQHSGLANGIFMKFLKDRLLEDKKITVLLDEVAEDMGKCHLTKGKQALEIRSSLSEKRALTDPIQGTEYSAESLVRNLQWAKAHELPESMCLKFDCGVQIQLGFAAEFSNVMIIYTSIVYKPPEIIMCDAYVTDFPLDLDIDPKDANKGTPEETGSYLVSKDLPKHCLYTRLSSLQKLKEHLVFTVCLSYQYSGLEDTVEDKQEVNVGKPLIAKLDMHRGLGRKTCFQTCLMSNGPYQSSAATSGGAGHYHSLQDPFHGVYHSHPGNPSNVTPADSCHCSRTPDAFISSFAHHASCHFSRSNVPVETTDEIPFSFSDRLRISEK

For the molecule `CN(C(=O)[C@H]1CCN(S(C)(=O)=O)C1)[C@@H](c1ccc(N2CCCc3c2cnc2cc(Cl)nn32)cc1)C(F)(F)F` (relative stereo) [CPD0073143, (3rel-S)-N-[(1S)-1-(4-{4-chloro-2,3,7,10-tetraazatricyclo[7.4.0.0^2,6]trideca-1(9),3,5,7-tetraen-10-yl}phenyl)-2,2,2-trifluoroethyl]-1-methanesulfonyl-N-methylpyrrolidine-3-carboxamide], the results for the IC50 in assay [1] and in assay [2] were 0.068 µM and 0.107 µM, respectively.

As for `CN(C(=O)[C@H]1CC[S@+]([O-])CC1)[C@@H](c1ccc(N2CCC(C)(C)c3c2cnc2cc(F)nn32)cc1)C(F)(F)F` (relative stereo) [CPD0072781, (1rel-r,4rel-r)-N-methyl-1-oxo-N-[(1S)-2,2,2-trifluoro-1-(4-{4-fluoro-13,13-dimethyl-2,3,7,10-tetraazatricyclo [7.4.0.02,6]trideca-1(9),3,5,7-tetraen-10-yl}phenyl)ethyl]-1/4-thiane-4-carboxamide], the values for the concentration for half-maximal inhibition (IC50) in assay [1] and in assay [2] were 0.06 µM and 0.075 µM, respectively.

For `C[C@@H]1CCN(c2ccc([C@H](N(C)C(=O)[C@H]3CC[S@](=N)(=O)CC3)C(F)(F)F)cc2)c2cnc3cc(Cl)nn3c21` (relative stereo) [CPD0073193, (1rel-r,4rel-r)-N-[(1S)-1-{4-[(13rel-R)-4-chloro-13-methyl-2,3,7,10-tetraazatricyclo[7.4.0.0^2,6]trideca-1(9),3,5,7-tetraen-10-yl]phenyl}-2,2,2-trifluoroethyl]-1-imino-N-methyl-1-oxo-1λ^6-thiane-4-carboxamide], the IC50 (as a rule, the concentration needed to halve the response being measured) in assay [1] came out at 0.022 µM; in assay [2] it was 0.068 µM.

Consider `CN(C(=O)[C@H]1CC[S@@](=N)(=O)CC1)[C@@H](c1ccc(N2CCC(C)(C)c3c2cnc2cc(F)nn32)cc1)C(F)(F)F` (relative stereo) [CPD0072782], for which the IC50 in assay [1] was 0.053 µM; in assay [2], 0.095 µM.

`CN(C(=O)[C@H]1CC[S@@+]([O-])CC1)[C@@H](c1ccc(N2CCC(C)(C)c3c2cnc2cc(Cl)nn32)cc1)C(F)(F)F` (relative stereo) [CPD0072776, (1rel-s,4rel-s)-N-[(1S)-1-(4-{4-chloro-13,13-dimethyl-2,3,7,10-tetraazatricyclo[7.4.0.0^2,6]trideca-1(9),3,5,7-tetraen-10-yl}phenyl)-2,2,2-trifluoroethyl]-N-methyl-1-oxo-1λ^4-thiane-4-carboxamide]: the half-maximal inhibitory concentration (IC50) in assay [1] turned out to be 0.073 µM; in assay [2], 0.035 µM.

On to `CN(C(=O)[C@H]1C[C@H]([S@@+](C)(=N)[O-])C1)[C@@H](c1ccc(N2CCCc3c2cnc2cc(Cl)nn32)cc1)C(F)(F)F` [CPD0073225, (1S,3r)-N-[(1S)-1-(4-{4-chloro-2,3,7,10-tetraazatricyclo[7.4.0.0^2,6]trideca-1(9),3,5,7-tetraen-10-yl}phenyl)-2,2,2-trifluoroethyl]-3-[(S)-imino(methyl)oxo-λ^6-sulfanyl]-N-methylcyclobutane-1-carboxamide], for which the figures for the IC50 in assay [1] and in assay [2] were 0.053 µM and 0.122 µM, respectively.

On to `CNCC(=O)N1CC[C@H](C(=O)N(C)[C@@H](c2ccc(N3CCCc4c3cnc3cc(Cl)nn43)cc2)C(F)(F)F)C1` (relative stereo) [CPD0075880, (3 rel-R)—N-[(1S)-1-[4-(4-chloro-2,3,7,10-tetrazatricyclo[7.4.0.0^2,6]trideca-1(9),3,5,7-tetraen-10-yl)phenyl]-2,2,2-trifluoro-ethyl]-N-methyl-1-[2-(methylamino)acetyl]pyrrolidine-3-carboxamide hydrochloride], for which the IC50 in assay [1] came out at 0.099 µM; in assay [2], 0.363 µM.

Turning to `CN(C(=O)C1CN(C(=O)[C@H]2CCO2)C1)[C@@H](c1ccc(N2CCCc3c2cnc2cc(Cl)nn32)cc1)C(F)(F)F` (relative stereo) [CPD0073562, N-[(1S)-1-(4-{4-chloro-2,3,7,10-tetraazatricyclo[7.4.0.0^2,6]trideca-1(9),3,5,7-tetraen-10-yl}phenyl)-2,2,2-trifluoroethyl]-N-methyl-1-[(2rel-R)-oxetane-2-carbonyl]azetidine-3-carboxamide], the concentration for half-maximal inhibition (IC50) amounted to 0.08 µM in assay [1] and 0.352 µM in assay [2].

As to `CN(C(=O)[C@H]1CC[S@+]([O-])CC1)[C@@H](c1ccc(N2CCC3(CC3)c3c2cnc2cc(F)nn32)cc1)C(F)(F)F` (relative stereo) [CPD0072933, (1rel-r,4rel-r)-N-methyl-1-oxo-N-[(1S)-2,2,2-trifluoro-1-(4-{4′-fluoro-2′,3′,7′,10′-tetraazaspiro[cyclopropane-1,13′-tricyclo[7.4.0.0^2,6]tridecane]-1′(9′),3′,5′,7′-tetraen-10′-yl}phenyl)ethyl]-1λ^4-thiane-4-carboxamide], the values for the IC50 in assay [1] and in assay [2] were 0.033 µM and 0.058 µM, respectively.

Consider `CN(C(=O)[C@H]1CC[S@@](=N)(=O)CC1)[C@@H](c1ccc(N2CCCc3c2cnc2cc(Cl)nn32)cc1)C(F)(F)F` (relative stereo) [CPD0072528, (1rel-s,4rel-S)-N-[(1S)-1-(4-{4-chloro-2,3,7,10-tetraazatricyclo[7.4.0.0^2,6]trideca-1(9),3,5,7-tetraen-10-yl}phenyl)-2,2,2-trifluoroethyl]-1-imino-N-methyl-1-oxo-1λ^6-thiane-4-carboxamide], for which the IC50 was found to be 0.032 µM in assay [1] and 0.108 µM in assay [2].

Regarding `CN(C(=O)C1CCS(=O)(=O)C1)[C@@H](c1ccc(N2CCCc3c2cnc2cc(Cl)nn32)cc1)C(F)(F)F` (some centres unmarked) [CPD0021573], the IC50 amounted to 0.131 µM in assay [1] and 0.085 µM in assay [2].

`CC(=O)N1CCC(C(=O)N(C)[C@@H](c2ccc(N3CCCc4c3cnc3cc(Cl)nn43)cc2)C(F)(F)F)CC1` [CPD0073089, 1-acetyl-N-[(1S)-1-(4-{4-chloro-2,3,7,10-tetraazatricyclo[7.4.0.0^2,6]trideca-1(9),3,5,7-tetraen-10-yl}phenyl)-2,2,2-trifluoroethyl]-N-methylpiperidine-4-carboxamide]: the half-inhibitory concentration (IC50) worked out at 0.046 µM in assay [1] and 0.079 µM in assay [2].

As to `CN(C(=O)[C@@H]1CS(=O)(=O)CC12CC2)[C@@H](c1ccc(N2CCCc3c2cnc2cc(Cl)nn32)cc1)C(F)(F)F` (relative stereo) [CPD0073968, (7rel-R)-N-[(1S)-1-(4-{4-chloro-2,3,7,10-tetraazatricyclo[7.4.0.0^2,6]trideca-1(9),3,5,7-tetraen-10-yl}phenyl)-2,2,2-trifluoroethyl]-N-methyl-5,5-dioxo-5λ^6-thiaspiro[2.4]heptane-7-carboxamide], the IC50 amounted to 0.1 µM in assay [1] and 0.199 µM in assay [2].

With `CN(C(=O)C1CCOCC1)[C@@H](c1ccc(N2CCCc3c2cnc2cc(Cl)nn32)cc1)C(F)(F)F` [CPD0021574, N-[(1S)-1-(4-{4-chloro-2,3,7,10-tetraazatricyclo[7.4.0.0^2,6]trideca-1(9),3,5,7-tetraen-10-yl}phenyl)-2,2,2-trifluoroethyl]-N-methyloxane-4-carboxamide], the IC50 worked out at 0.123 µM in assay [1] and 0.121 µM in assay [2].

For `COc1ccc2ncc(Nc3ccc([C@H](N(C)C(=O)[C@H]4CC[S@@](=N)(=O)CC4)C(F)(F)F)cc3)c([C@@H](C)OC)c2n1` [CPD0075564], the values for the IC50 in assay [1] and in assay [2] were 0.089 µM and 0.175 µM, respectively.

As to `CN(C(=O)C1CCS(=O)(=O)CC1)[C@@H](c1ccc(N2CCC(C)(C)c3c2cnc2cc(Cl)nn32)cc1)C(F)(F)F` [CPD0019589, N-[(1S)-1-(4-{4-chloro-13,13-dimethyl-2,3,7,10-tetraazatricyclo[7.4.0.0^2,6]trideca-1(9),3,5,7-tetraen-10-yl}phenyl)-2,2,2-trifluoroethyl]-N-methyl-1,1-dioxo-1λ^6-thiane-4-carboxamide], the half-maximal inhibitory concentration (IC50) in assay [1] is 0.038 µM; in assay [2], 0.032 µM.

Regarding `CN(C(=O)[C@@H]1CCC(=O)N1C)[C@@H](c1ccc(N2CCCc3c2cnc2cc(Cl)nn32)cc1)C(F)(F)F` [CPD0073919, (2S)-N-[(1S)-1-(4-{4-chloro-2,3,7,10-tetraazatricyclo[7.4.0.0^2,6]trideca-1(9),3,5,7-tetraen-10-yl}phenyl)-2,2,2-trifluoroethyl]-N,1-dimethyl-5-oxopyrrolidine-2-carboxamide], the IC50 in assay [1] was 0.061 µM; in assay [2], 0.112 µM.

Consider `CN(C(=O)C1CCS(=N)(=O)CC1)[C@@H](c1ccc(N2CC3(CC3)Cc3c2cnc2cc(Cl)nn32)cc1)C(F)(F)F` (stereo partly drawn) [CPD0073761, N-[(1S)-1-[4-(4-chlorospiro[2,3,7,10-tetrazatricyclo[7.4.0.0^2,6]trideca-1(9),3,5,7-tetraene-12,1′-cyclopropane]-10-yl)phenyl]-2,2,2-trifluoro-ethyl]-1-imino-N-methyl-1-oxo-thiane-4-carboxamide], for which the values for the IC50 in assay [1] and in assay [2] were 0.078 µM and 0.317 µM, respectively.

With `C[C@@H]1CCN(c2ccc([C@H](N(C)C(=O)[C@H]3CC[S@@](=N)(=O)CC3)C(F)(F)F)cc2)c2cnc3cc(Cl)nn3c21` (relative stereo) [CPD0073192, (1rel-s,4rel-s)-N-[(1S)-1-{4-[(13rel-R)-4-chloro-13-methyl-2,3,7,10-tetraazatricyclo[7.4.0.0^2,6]trideca-1(9),3,5,7-tetraen-10-yl]phenyl}-2,2,2-trifluoroethyl]-1-imino-N-methyl-1-oxo-1λ^6-thiane-4-carboxamide], the half-inhibitory concentration (IC50) in assay [1] worked out at 0.025 µM; in assay [2] it was 0.08 µM.
